According to article PMC3626250, “Effects of Borneol on Pharmacokinetics and Tissue Distribution of Notoginsenoside R1 and Ginsenosides Rg1 and Re in Panax notoginseng in Rabbits” (Journal of Analytical Methods in Chemistry, 2013):

What was measured:
Caco-2 cells = test: MTT cytotoxicity assay toward Caco-2 cells; format: cell-based; conditions: chosen for transport study
Description: The Caco-2 cells were cultured in Dulbecco's modified Eagle's medium (DMEM) supplemented with 20% foetal bovine serum, 1% nonessential amino acids and penicillin-streptomycin, at 37°C in an atmosphere with a relative humidity of 95% and a CO2 flow of 5%. Medium was replaced every 2-3 days. When the cell monolayer reached 80% confluence, the cells were detached with a solution of 0.02% EDTA and 0.25% trypsin. The vinblastine-selected Caco-2 cells were cultivated in the presence of 10 nM vinblastine to induce P-glycoprotein (P-gp) expression. The culture medium was changed to a fresh medium without vinblastine 24 h before experiments, and the cells were used between passages 25 and 46. Prior to the transport study, cytotoxicity of NGR1, GRg1, GRe, and Borneol toward Caco-2 cells was determined using MTT assays. Noncytotoxic concentrations of 500 μM NGR1, GRg1, GRe, and 200 μM Borneol (dissolved in DMSO) were chosen for transport study.

Caco-2 cell monolayers = test: TEER values of the Caco-2 cell monolayers; format: cell-based; conditions: 200 μM Borneol with 500 μM NGR1, GRg1 and GRe, Caco-2 monolayers
Description: In transport studies, vinblastine-selected Caco-2 cells were seeded on polycarbonate filter of transwells for 18–21 days before starting transport study, and the monolayers with the transepithelial electrical resistance (TEER) values greater than 300 Ωcm^2 were used. Caco-2 monolayers were rinsed twice with Hanks' balanced salt solution (HBSS) and preincubated in HBSS at 37°C for 30 min before starting experiments. To start the experiments, 500 μM of NGR1, GRg1, and GRe in final concentrations were added to the donor side with or without 200 μM Borneol and then incubated at 37°C. An aliquot of 0.1 mL samples were withdrawn from receiver chambers at 0, 30, 60, 90, and 120 min after the loading. After each sampling, 0.1 mL of HBSS was added to the receiver chamber to maintain a constant volume. All the experiments were performed five times in duplicate. […] During the above transport studies, the TEER values were also monitored before and at the end of each experiment. Apparent permeability coefficients (P app) were then calculated according to the following equation: (1) Papp=(dC/dt×V)/(A×C0), where dC/dt is the rate of the test compound appearing in the receiver chamber, V is the volume of the solution in the receiver chamber, A is the cell monolayer surface area, and C 0 is the initial concentration of the test compound added in the donor chamber. […]

## CC1(C)C2CCC1(C)C(O)C2 (centres unmarked) [Borneol]
Caco-2 cells
  Noncytotoxic concentration: 200 µM
Caco-2 cell monolayers
  TEER values of the monolayers decreased reversibly to: about 23%
